Test results as given in publication PMC3635961, “Identification of genes related to agarwood formation: transcriptome analysis of healthy and wounded tissues of Aquilaria sinensis” (BMC Genomics, 2013).
Positions count from the first letter of the chain named.

Columns and labels:
Assay in all cases: GC-MS of volatile products (SPME)
Assay type in all cases: biochemical
Conditions in all cases: Tris-HCl pH 7.0, MgSO4, DTT, 10% glycerol, 30 C, 4 h; crude protein extract
ASS3 = biological target: T1, ASS3 (Aquilaria sinensis, UniProt K9MPP8)
T1 construct: full-length ORF (1644 nt, 547 residues), pET-28a fusion protein, E. coli; crude protein extract assayed
T1 sequence (K9MPP8 1-547): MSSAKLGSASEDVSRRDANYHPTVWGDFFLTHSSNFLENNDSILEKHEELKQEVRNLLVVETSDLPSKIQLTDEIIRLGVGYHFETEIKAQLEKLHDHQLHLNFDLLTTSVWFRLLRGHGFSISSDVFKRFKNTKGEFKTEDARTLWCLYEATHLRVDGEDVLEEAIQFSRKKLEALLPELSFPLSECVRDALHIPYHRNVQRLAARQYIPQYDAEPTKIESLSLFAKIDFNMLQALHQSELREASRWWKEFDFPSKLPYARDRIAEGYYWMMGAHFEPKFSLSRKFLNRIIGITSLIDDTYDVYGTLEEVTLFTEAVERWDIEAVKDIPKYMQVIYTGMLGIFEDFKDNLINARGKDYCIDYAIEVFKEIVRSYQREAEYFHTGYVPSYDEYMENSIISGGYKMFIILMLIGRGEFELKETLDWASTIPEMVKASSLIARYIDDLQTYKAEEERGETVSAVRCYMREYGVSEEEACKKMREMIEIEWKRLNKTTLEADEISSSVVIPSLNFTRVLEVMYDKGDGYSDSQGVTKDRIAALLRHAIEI

ASS2 = biological target: T2, ASS2 (Aquilaria sinensis, UniProt K9MNV6)
T2 construct: full-length ORF (1644 nt, 547 residues), pET-28a fusion protein, E. coli; crude protein extract assayed
T2 sequence (K9MNV6 1-547): T1 sequence (K9MPP8 1-547) with E454K, R481K

ASS1 = biological target: T3, ASS1 (Aquilaria sinensis, UniProt K9MQ67)
T3 construct: full-length ORF (1644 nt, 547 residues), pET-28a XhoI/BamHI, His-tag fusion, E. coli BL21(DE3); crude protein extract assayed
T3 sequence (K9MQ67 entry or part of it): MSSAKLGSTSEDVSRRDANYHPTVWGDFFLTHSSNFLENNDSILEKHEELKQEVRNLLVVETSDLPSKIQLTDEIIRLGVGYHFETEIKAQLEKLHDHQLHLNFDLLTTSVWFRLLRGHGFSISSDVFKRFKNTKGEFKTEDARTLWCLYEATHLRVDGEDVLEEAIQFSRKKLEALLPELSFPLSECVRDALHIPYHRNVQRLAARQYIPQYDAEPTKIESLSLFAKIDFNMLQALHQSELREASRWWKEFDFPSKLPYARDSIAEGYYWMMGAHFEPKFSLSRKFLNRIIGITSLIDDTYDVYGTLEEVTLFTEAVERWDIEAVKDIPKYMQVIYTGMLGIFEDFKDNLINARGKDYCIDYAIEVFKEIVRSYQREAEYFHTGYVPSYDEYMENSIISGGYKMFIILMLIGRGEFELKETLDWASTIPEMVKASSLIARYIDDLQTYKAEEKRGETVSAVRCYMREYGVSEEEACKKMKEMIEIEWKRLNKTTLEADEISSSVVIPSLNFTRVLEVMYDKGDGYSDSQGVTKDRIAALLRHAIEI

SMILES: CC(C)=CCC/C(C)=C/CC/C(C)=C/COP(=O)(O)OP(=O)(O)O [FPP]
- GC-MS of volatile products (SPME) (ASS3): ASS1-3 did not accept geranyl diphosphate or geranylgeranyl diphosphate as a substrate, converting only FPP
- GC-MS of volatile products (SPME) (ASS2): ASS1-3 did not accept geranyl diphosphate or geranylgeranyl diphosphate as a substrate, converting only FPP
- GC-MS of volatile products (SPME) (ASS1): ASS1-3 did not accept geranyl diphosphate or geranylgeranyl diphosphate as a substrate, converting only FPP
